The results in this text go back to patent publication US10988478B1, “Pyrazolo[1,5a]pyrimidine derivatives as IRAK4 modulators” (Genentech, Inc., priority 2015, dated 2021).

By Ki is commonly meant the dissociation constant of the complex between target and ligand, obtained from inhibition or displacement.

In the assay the target is human IRAK4 (Homo sapiens (Human), UniProt Q9NWZ3). Kind of assay: IRAK4 kinase inhibition, Transcreener fluorescence polarization ADP assay. Conditions: recombinant full-length His6-IRAK4; 125 uM ATP; 90 min; Ki computed using ATP Km 642 uM. The assay is classed as biochemical. As to the method: Compounds were assayed for inhibition of human IRAK4 and IRAK1 catalytic activity using recombinant enzyme produced from insect cells. Full-length IRAK4 protein, carrying an N-terminal His6-Tag, was obtained from Life Technologies (Carlsbad, Calif., USA). The IRAK1 construct was produced internally and was comprised of IRAK1 residues Arg194 to Ser712, preceded by an NH2-terminal His6 tag and the coding sequence for glutathione-S-transferase.
human IRAK4, sequence (Q9NWZ3 whole entry, the tested form may be a part): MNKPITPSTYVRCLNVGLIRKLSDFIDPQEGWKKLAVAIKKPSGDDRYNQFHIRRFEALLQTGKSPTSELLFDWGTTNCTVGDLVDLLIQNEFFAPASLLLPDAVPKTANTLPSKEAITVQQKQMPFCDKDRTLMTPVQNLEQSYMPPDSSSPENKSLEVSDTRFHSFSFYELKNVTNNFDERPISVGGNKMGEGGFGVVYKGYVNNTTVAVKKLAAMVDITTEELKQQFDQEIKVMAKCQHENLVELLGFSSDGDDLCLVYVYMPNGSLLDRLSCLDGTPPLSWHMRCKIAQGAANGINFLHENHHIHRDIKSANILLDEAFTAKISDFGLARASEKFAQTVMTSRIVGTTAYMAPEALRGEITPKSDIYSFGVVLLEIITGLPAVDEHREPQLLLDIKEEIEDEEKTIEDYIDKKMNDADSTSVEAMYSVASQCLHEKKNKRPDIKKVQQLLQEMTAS
For the compound `O=C(Nc1cc2c(cc1N1CCC(CO)CC1)O[C@](CO)(C(F)(F)F)C2)c1cnn2cccnc12` [Example 316, (R)-N-(2-(hydroxymethyl)-6-(4-(hydroxymethyl)piperidin-1-yl)-2-(trifluoromethyl)-2,3-dihydrobenzofuran-5-yl)pyrazolo[1,5-a]pyrimidine-3-carboxamide], the Ki came to 5.2 nM.

On to `O=C(Nc1cc2c(cc1N1CCC(CO)CC1)O[C@@](CO)(C(F)(F)F)C2)c1cnn2cccnc12` [Example 317, (S)-N-(2-(hydroxymethyl)-6-(4-(hydroxymethyl)piperidin-1-yl)-2-(trifluoromethyl)-2,3-dihydrobenzofuran-5-yl)pyrazolo[1,5-a]pyrimidine-3-carboxamide], for which the Ki turned out to be 2.4 nM.

`O=C(Nc1cc2c(cc1N1CCC(F)(CO)CC1)O[C@@](CO)(C(F)(F)F)C2)c1cnn2cccnc12` [Example 319, (S)-N-(6-(4-fluoro-4-(hydroxymethyl)piperidin-1-yl)-2-(hydroxymethyl)-2-(trifluoromethyl)-2,3-dihydrobenzofuran-5-yl)pyrazolo[1,5-a]pyrimidine-3-carboxamide]: the Ki is 3.1 nM.

Regarding `C[C@]1(CO)Cc2cc(NC(=O)c3cnn4cccnc34)c(N3CCC4(CC3)CNC4=O)cc2O1` [Example 320, (R)-N-(2-(hydroxymethyl)-2-methyl-6-(1-oxo-2,7-diazaspiro[3.5]nonan-7-yl)-2,3-dihydrobenzofuran-5-yl)pyrazolo[1,5-a]pyrimidine-3-carboxamide], the Ki was found to be 4.6 nM.

With `C[C@@]1(CO)Cc2cc(NC(=O)c3cnn4cccnc34)c(N3CCC4(CC3)CNC4=O)cc2O1` [Example 321, (S)-N-(2-(hydroxymethyl)-2-methyl-6-(1-oxo-2,7-diazaspiro[3.5]nonan-7-yl)-2,3-dihydrobenzofuran-5-yl)pyrazolo[1,5-a]pyrimidine-3-carboxamide], the Ki amounted to 11 nM.

In the case of `CC1(CO)Cc2cc(NC(=O)c3cnn4cccnc34)c(N3CC4C(CO)C4C3)cc2O1` (stereo not drawn) [Example 322, N-(2-(hydroxymethyl)-6-(6-(hydroxymethyl)-3-azabicyclo[3.1.0]hexan-3-yl)-2-methyl-2,3-dihydrobenzofuran-5-yl)pyrazolo[1,5-a]pyrimidine-3-carboxamide], the Ki came out at 35 nM.

For `CC(C)(O)C1CCN(c2cc3c(cc2NC(=O)c2cnn4cccnc24)C[C@@](C)(CO)O3)CC1` [Example 323, N-[(2S)-2-(Hydroxymethyl)-6-[4-(1-hydroxy-1-methyl-ethyl)-1-piperidyl]-2-methyl-3H-benzofuran-5-yl]pyrazolo[1,5-α]pyrimidine-3-carboxamide], the Ki turned out to be 4.2 nM.

Turning to `CC(C)(O)C1CCN(c2cc3c(cc2NC(=O)c2cnn4cccnc24)C[C@](C)(CO)O3)CC1` [Example 324, N-[(2R)-2-(Hydroxymethyl)-6-[4-(1-hydroxy-1-methyl-ethyl)-1-piperidyl]-2-methyl-3H-benzofuran-5-yl]pyrazolo[1,5-α]pyrimidine-3-carboxamide], the Ki is 4.8 nM.

Regarding `Cc1cnc2c(C(=O)Nc3cc4c(cc3N3CCN(CC(F)F)CC3)OC(C)(CO)C4)cnn2c1` (stereo not drawn) [Example 325, N-(6-(4-(2,2-Difluoroethyl)piperazin-1-yl)-2-(hydroxymethyl)-2-methyl-2,3-dihydrobenzofuran-5-yl)-6-methylpyrazolo[1,5-a]pyrimidine-3-carboxamide], the inhibition constant Ki worked out at 6 nM.

Turning to `Cc1cnc2c(C(=O)Nc3cc4c(cc3N3CCC(F)(CO)CC3)OC(C)(CO)C4)cnn2c1` (stereo not drawn) [Example 328, N-(6-(4-Fluoro-4-(hydroxymethyl)-piperidin-1-yl)-2-(hydroxymethyl)-2-methyl-2,3-dihydrobenzofuran-5-yl)-6-methylpyrazolo[1,5-α]pyrimidine-3-carboxamide], the Ki amounted to 2.7 nM.

For the compound `C[C@@]1(O)CCCN(c2cc3c(cc2NC(=O)c2cnn4cccnc24)C[C@](C)(CO)O3)CC1` [Example 329, N-((R)-6-((R)-4-hydroxy-4-methylazepan-1-yl)-2-(hydroxymethyl)-2-methyl-2,3-dihydrobenzofuran-5-yl)pyrazolo[1,5-a]pyrimidine-3-carboxamide], the Ki was determined as 6 nM.

With `C[C@]1(O)CCCN(c2cc3c(cc2NC(=O)c2cnn4cccnc24)C[C@](C)(CO)O3)CC1` [Example 330, N-((R)-6-((S)-4-hydroxy-4-methylazepan-1-yl)-2-(hydroxymethyl)-2-methyl-2,3-dihydrobenzofuran-5-yl)pyrazolo[1,5-a]pyrimidine-3-carboxamide], the inhibitory constant (Ki) is 6 nM.

`C[C@]1(O)CCCN(c2cc3c(cc2NC(=O)c2cnn4cccnc24)C[C@@](C)(CO)O3)CC1` [Example 332, N-((S)-6-((S)-4-hydroxy-4-methylazepan-1-yl)-2-(hydroxymethyl)-2-methyl-2,3-dihydrobenzofuran-5-yl)pyrazolo[1,5-a]pyrimidine-3-carboxamide]: the Ki is 6 nM.

As to `C[C@]1(CO)Cc2cc(NC(=O)c3cnn4cccnc34)c(N3CCC(C#N)CC3)cc2O1` [Example 335, (R)-N-(6-(4-cyanopiperidin-1-yl)-2-(hydroxymethyl)-2-methyl-2,3-dihydrobenzofuran-5-yl)pyrazolo[1,5-a]pyrimidine-3-carboxamide], the Ki stood at 2 nM.

With `C[C@@]1(CO)Cc2cc(NC(=O)c3cnn4cccnc34)c(N3CCC(C#N)CC3)cc2O1` [Example 336, (S)-N-(6-(4-cyanopiperidin-1-yl)-2-(hydroxymethyl)-2-methyl-2,3-dihydrobenzofuran-5-yl)pyrazolo[1,5-a]pyrimidine-3-carboxamide], the Ki came out at 3 nM.

As for `C[C@]1(CO)Cc2cc(NC(=O)c3cnn4cccnc34)c(N3CCC(C4(O)CC4)CC3)cc2O1` [Example 341, N-[(2R)-6-[4-(1-hydroxycyclopropyl)-1-piperidyl]-2-(hydroxymethyl)-2-methyl-3H-benzofuran-5-yl]pyrazolo[1,5-a]pyrimidine-3-carboxamide], the inhibitory constant (Ki) worked out at 4 nM.

As to `C[C@@]1(CO)Cc2cc(NC(=O)c3cnn4cccnc34)c(N3CCC(C4(O)CC4)CC3)cc2O1` [Example 342, N-[(2S)-6-[4-(1-hydroxycyclopropyl)-1-piperidyl]-2-(hydroxymethyl)-2-methyl-3H-benzofuran-5-yl]pyrazolo[1,5-a]pyrimidine-3-carboxamide], the inhibition constant Ki was found to be 3.9 nM.

`CCC(=O)C1CCN(c2cc3c(cc2NC(=O)c2cnn4cccnc24)CC(C)(CO)O3)CC1` (stereo not drawn) [Example 343, N-[2-(Hydroxymethyl)-2-methyl-6-(4-propanoyl-1-piperidyl)-3H-benzofuran-5-yl]pyrazolo[1,5-a]pyrimidine-3-carboxamide]: the Ki came to 5 nM.

With `C[C@]1(CO)Cc2cc(NC(=O)c3cnn4cccnc34)c(N3C[C@@H]4[C@H](C3)[C@@H]4C(N)=O)cc2O1` [Example 348, N-((R)-6-((1R,5S,6S)-6-carbamoyl-3-azabicyclo[3.1.0]hexan-3-yl)-2-(hydroxymethyl)-2-methyl-2,3-dihydrobenzofuran-5-yl)pyrazolo[1,5-a]pyrimidine-3-carboxamide], the Ki was 890 nM.

Take `C[C@@]1(CO)Cc2cc(NC(=O)c3cnn4cccnc34)c(N3C[C@@H]4[C@H](C3)[C@@H]4C(N)=O)cc2O1` [Example 349, N-((S)-6-((1R,5S,6R)-6-carbamoyl-3-azabicyclo[3.1.0]hexan-3-yl)-2-(hydroxymethyl)-2-methyl-2,3-dihydrobenzofuran-5-yl)pyrazolo[1,5-a]pyrimidine-3-carboxamide]: the Ki worked out at 1100 nM.

For the compound `CC1(CO)Cc2cc(NC(=O)c3cnn4cccnc34)c(N3CCC(C(O)C(F)F)CC3)cc2O1` (stereo not drawn) [Example 352, N-(6-(4-(2,2-Difluoro-1-hydroxyethyl)piperidin-1-yl)-2-(hydroxymethyl)-2-methyl-2,3-dihydrobenzofuran-5-yl)pyrazolo[1,5-a]pyrimidine-3-carboxamide], the inhibition constant Ki was determined as 2 nM.

`CC(C)(O)[C@]1(C)Cc2cc(NC(=O)c3cnn4cccnc34)c(N3CCC(CO)CC3)cc2O1` [Example 354, (S)—N-(6-(4-(Hydroxymethyl)piperidin-1-yl)-2-(2-hydroxypropan-2-yl)-2-methyl-2,3-dihydrobenzofuran-5-yl)pyrazolo[1,5-a]pyrimidine-3-carboxamide]: the Ki was 3 nM.

Turning to `CC(C)(O)[C@@]1(C)Cc2cc(NC(=O)c3cnn4cccnc34)c(N3CCC(CO)CC3)cc2O1` [Example 355, (R)—N-(6-(4-(Hydroxymethyl)piperidin-1-yl)-2-(2-hydroxypropan-2-yl)-2-methyl-2,3-dihydrobenzofuran-5-yl)pyrazolo[1,5-a]pyrimidine-3-carboxamide], the inhibition constant (Ki) came to 6 nM.

On to `CC(C)(O)C1(C)Cc2cc(NC(=O)c3cnn4cccnc34)c(N3CCN(CC(N)=O)CC3)cc2O1` (stereo not drawn) [Example 356, N-[6-[4-(2-amino-2-oxo-ethyl)piperazin-1-yl]-2-(1-hydroxy-1-methyl-ethyl)-2-methyl-3H-benzofuran-5-yl]pyrazolo[1,5-a]pyrimidine-3-carboxamide], for which the Ki was 4 nM.

Take `CC1(C)Cc2cc(NC(=O)c3cnn4cccnc34)c(C3CCN(CCO)CC3)cc2O1` [Example 357, N-(6-(1-(2-Hydroxyethyl)piperidin-4-yl)-2,2-dimethyl-2,3-dihydrobenzofuran-5-yl)pyrazolo[1,5-a]pyrimidine-3-carboxamide]: the Ki was 410 nM.

`CC1(C)Oc2cc(NC(=O)c3cnn4cccnc34)c(N3CCOCC3)cc2C1O` (stereo not drawn) [Example 358, N-(3-Hydroxy-2,2-dimethyl-5-morpholino-2,3-dihydrobenzofuran-6-yl)pyrazolo[1,5-a]pyrimidine-3-carboxamide]: the inhibition constant Ki turned out to be 510 nM.

`CC1(C)Oc2cc(NC(=O)c3cnn4cccnc34)c(N3CCOCC3)cc2C1=O` [Example 359, N-(2,2-dimethyl-5-morpholino-3-oxo-2,3-dihydrobenzofuran-6-yl)pyrazolo[1,5-a]pyrimidine-3-carboxamide]: the inhibitory constant (Ki) amounted to 260 nM.
